IC50 data for 47 compounds are collected here from patent publication US20170291905A1, “ARGININE […] INHIBITORS AND USES THEREOF” (Epizyme, Inc., priority 2014, published 2017).

Bounds are passed on as bounds.

full-length human PRMT6 (Flag- and His-tagged), sequence (Q96LA8 with tags, fused parts or gaps): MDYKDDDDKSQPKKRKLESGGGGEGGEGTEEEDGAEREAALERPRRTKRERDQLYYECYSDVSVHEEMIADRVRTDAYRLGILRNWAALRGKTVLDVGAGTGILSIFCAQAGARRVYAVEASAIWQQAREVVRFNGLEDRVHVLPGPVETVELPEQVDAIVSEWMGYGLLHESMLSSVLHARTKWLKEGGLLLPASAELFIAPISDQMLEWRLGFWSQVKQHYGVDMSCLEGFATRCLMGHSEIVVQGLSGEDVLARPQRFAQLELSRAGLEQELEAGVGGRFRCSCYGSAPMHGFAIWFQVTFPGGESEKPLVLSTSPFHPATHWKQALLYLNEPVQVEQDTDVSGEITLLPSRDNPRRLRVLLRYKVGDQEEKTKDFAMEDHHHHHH

The assay has as its target full-length human PRMT6 (Flag- and His-tagged) (Homo sapiens, UniProt Q96LA8). Put plainly: PRMT6 biochemical assay (3H-SAM Flashplate, histone H4 36-50 K44me1 peptide). Conditions: 1 nM PRMT6, 30 min preincubation, 75 nM peptide. The text has this:
S-adenosylmethionine (SAM), S-adenosylhomocysteine (SAH), bicine, Tween20, dimethylsulfoxide (DMSO), bovine skin gelatin (BSG), sodium butyrate and Tris(2-carboxyethyl)phosphine hydrochloride solution (TCEP) were purchased from Sigma-Aldrich at the highest level of purity possible. ^3H-SAM was purchase from American Radiolabeled Chemicals with a specific activity of 80 Ci/mmol. 384-well streptavidin Flashplates were purchased from PerkinElmer.
Peptide representative of human histone H4 residues 36-50 was synthesized with an N-terminal linker-affinity tag motif and a C-terminal amide cap by 21st Century Biochemicals. The peptide was purified by high-performance liquid chromatography (HPLC) to greater than 95% purity and confirmed by liquid chromatography mass spectrometry (LC-MS). The sequence was Biot-Ahx-[…]-amide and contained a monomethylated lysine at position 44 (SEQ ID NO.:5).
Full-length human PRMT6 (NM_018137.2) transcript clone was amplified from an HEK 293 cDNA library, incorporating a flanking 5′ sequence encoding a FLAG tag ([…]) (SEQ ID NO.:6) fused directly to Ser 2 of PRMT6 and a 3′ sequence encoding a hexa His sequence (HHHHHH) (SEQ ID NO.: 17) fused directly to Asp 375. The amplified gene was subcloned into pFastBacMam (Viva Biotech).
Recombinant baculovirus were generated according to Bac-to-Bac kit instructions (Life Technologies). […] Infections were carried out at 37° C. for 48 hours, harvested by centrifugation, and stored at −80° C. for purification.
Column was washed with 20 mM imidazole in the same buffer and Flag-PRMT6-His was eluted with 150 mM imidazole. Pooled fractions were dialysed against buffer Ni-A and further purified by anti-flag M2 affinity chromatography. Flag-PRMT6-His was eluted with 200 ug/ml FLAG peptide in the same buffer. Pooled fractions were dialysed in 20 mM Tris, 150 mM NaCl, 10% glycerol and 5 mM β-mercaptoethanol, pH 7.8. The purity of recovered protein was 95%.
General Procedure for PRMT6 Enzyme Assays on Peptide Substrates.
The assays were all performed in a buffer consisting of 20 mM Bicine (pH=7.6), 1 mM TCEP, 0.005% BSG, and 0.002% Tween 20, prepared on the day of use. Compounds in 100% DMSO (1 ul) were spotted into a polypropylene 384-well V-bottom plates (Greiner) using a Platemate Plus outfitted with a 384-channel head (Thermo Scientific). DMSO (1 ul) was added to Columns 11, 12, 23, 24, rows A-H for the maximum signal control and 1 ul of SAH, a known product and inhibitor of PRMT6, was added to columns 11, 12, 23, 24, rows I-P for the minimum signal control. A cocktail (40 ul) containing the PRMT6 enzyme was added by Multidrop Combi (Thermo-Fisher). The compounds were allowed to incubate with PRMT6 for 30 min at room temperature, then a cocktail (10 ul) containing SAM and peptide was added to initiate the reaction (final volume=51 ul). The final concentrations of the components were as follows: PRMT6 was 1 nM, ^3H-SAM was 200 nM, non-radiolabeled SAM was 250 nM, peptide was 75 nM, SAH in the minimum signal control wells was 1 mM, and the DMSO concentration was 2%. The assays were stopped by the addition of non-radiolabeled SAM (10 ul) to a final concentration of 400 uM, which dilutes the ^3H-SAM to a level where its incorporation into the peptide substrate is no longer detectable. 50 ul of the reaction in the 384-well polypropylene plate was then transferred to a 384-well Flashplate and the biotinylated peptides were allowed to bind to the streptavidin surface for at least 1 hour before being washed once with 0.1% Tween20 in a Biotek ELx405 plate washer. The plates were then read in a PerkinElmer TopCount plate reader to measure the quantity of ^3H-labeled peptide bound to the Flashplate surface, measured as disintegrations per minute (dpm) or alternatively, referred to as counts per minute (cpm).
Where dpm=disintegrations per minute, cmpd=signal in assay well, and min and max are the respective minimum and maximum signal controls. […]
One may read the IC50 as the midpoint of a concentration-inhibition curve. Read a high IC50 as weaker potency. The compound `CCC1(CC)C[C@]2(CC[C@@H](c3n[nH]cc3CN(C)CCNC)CC2)OC1=O` [compound 34, (5r,8r)-3,3-diethyl-8-(4-((methyl(2-(methylamino)ethyl)amino)methyl)-1H-pyrazol-3-yl)-1-oxaspiro[4.5]decan-2-one] gave an IC50 of 10.6 nM. That is a double-digit nanomolar value.
Then `CNCCN(C)Cc1c[nH]nc1C1CCC(C)(C)[C@H](COCCOC)C1` (stereo partly drawn) [compound 35, {2-[({3-[(3R)-3-[(2-methoxyethoxy)methyl]-4,4-dimethylcyclohexyl]-1H-pyrazol-4-yl}methyl)(methyl)amino]ethyl}(methyl)amine], with 124 nM.
Then `CCCOCC1(COCCC)CCC(c2n[nH]cc2CN(C)CCNC)CC1` [compound 36, N^1-((3-(4,4-bis(propoxymethyl)cyclohexyl)-1H-pyrazol-4-yl)methyl)-N^1,N^2-dimethylethane-1,2-diamine], with 14.9 nM.
For `CC[C@]12CC[C@](CC)(C[C@H](c3n[nH]cc3CN(C)CCNC)C1)O2` [compound 37, N1-((3-((1R,3r,5S)-1,5-diethyl-8-oxabicyclo[3.2.1]octan-3-yl)-1H-pyrazol-4-yl)methyl)-N1,N2-dimethylethane-1,2-diamine] the value was 128 nM; for `CC[C@]12CC[C@](CC)(C[C@@H](c3n[nH]cc3CN(C)CCNC)C1)O2` [compound 38, N1-((3-((1R,3s,5S)-1,5-diethyl-8-oxabicyclo[3.2.1]octan-3-yl)-1H-pyrazol-4-yl)methyl)-N1,N2-dimethylethane-1,2-diamine], 132 nM.
Compound `CNCCN(C)Cc1ccnn1[C@H]1CC[C@]2(CC1)CC(C)(C)CO2` [compound 50, N1-((1-((5r,8r)-3,3-dimethyl-1-oxaspiro[4.5]decan-8-yl)-1H-pyrazol-5-yl)methyl)-N1,N2-dimethylethane-1,2-diamine] registered an IC50 of 502 nM. This IC50 lies about 3.8-fold higher than the previous one.
For `Cc1[nH]nc([C@H]2CC[C@@]3(CC2)CC(C)(C)CO3)c1CN(C)CCN` [compound 51, N1-((3-((5s,8s)-3,3-dimethyl-1-oxaspiro[4.5]decan-8-yl)-5-methyl-1H-pyrazol-4-yl)methyl)-N1-methylethane-1,2-diamine] the value was 155 nM; for `Cc1[nH]nc([C@H]2CC[C@]3(CC2)CC(C)(C)CO3)c1CN(C)CCN` [compound 52, N1-((3-((5r,8r)-3,3-dimethyl-1-oxaspiro[4.5]decan-8-yl)-5-methyl-1H-pyrazol-4-yl)methyl)-N1-methylethane-1,2-diamine], 202 nM; for `CNCCN(C)Cc1c(C)[nH]nc1[C@H]1CC[C@@]2(CC1)CC(C)(C)CO2` [compound 57], 94 nM.
For `CNCCN(C)Cc1c(C)[nH]nc1[C@H]1CC[C@]2(CC1)CC(C)(C)CO2` [compound 58] the value was 163 nM.
For `Cc1[nH]nc(C2CCC3(CC2)CC(C)(C)CO3)c1CN(C)CCN` (centres unmarked) [compound 59] the value was 131 nM; for `CCOCC1(COCC)CC=C(c2n[nH]cc2CN(C)CCNC)CC1` [compound 60], 41.1 nM; for `CNCCN(C)Cc1scnc1[C@H]1CC[C@@]2(CC1)CC(C)(C)CO2` [compound 62], 18.3 nM.
Compound `CNCCN(C)Cc1nn(C)nc1[C@H]1CC[C@@]2(CC1)CC(C)(C)CO2` [compound 64] yielded an IC50 of 208 nM.
The compound `CNCCN(C)Cc1cnnn1[C@H]1CC[C@@]2(CC1)CC(C)(C)CO2` [compound 65] came in with an IC50 greater than 10000 nM.
For `CNCCN(C)Cc1nn[nH]c1[C@H]1CC[C@@]2(CC1)CC(C)(C)CO2` [compound 67] the value was 51.1 nM.
Then `CNCCN(C)Cc1nncn1[C@H]1CC[C@@]2(CC1)CC(C)(C)CO2` [compound 68], with greater than 10000 nM; and `CNCCN(C)Cc1nccn1[C@H]1CC[C@@]2(CC1)CC(C)(C)CO2` [compound 69], with 8040 nM.
For `CNCCN(C)Cc1nnc(C)n1[C@H]1CC[C@@]2(CC1)CC(C)(C)CO2` [compound 71] the value was greater than 10000 nM.
For `CNCCN(C)Cc1cncn1[C@H]1CC[C@@]2(CC1)CC(C)(C)CO2` [compound 76], the IC50 worked out at 181 nM.
Consider `CNCCN(C)Cc1nc(C)sc1[C@H]1CC[C@@]2(CC1)CC(C)(C)CO2` [compound 77], for which the IC50 is 180 nM.
Then `CNCCN(C)Cc1sc(C)nc1[C@H]1CC[C@@]2(CC1)CC(C)(C)CO2` [compound 78], with 98.4 nM; and `CN(CCN)Cc1nn(C)cc1[C@H]1CC[C@@]2(CC1)CC(C)(C)CO2` [compound 80], with 345 nM.
For `CNCCN(C)Cc1nn(C)cc1[C@H]1CC[C@@]2(CC1)CC(C)(C)CO2` [compound 81] the value was 123 nM; for `CNCCN(C)Cc1ncsc1[C@H]1CC[C@@]2(CC1)CC(C)(C)CO2` [compound 83], 62.7 nM.
Then `CNCCN(C)Cc1scnc1[C@H]1CC[C@]2(CC1)CC(C)(C)CO2` [compound 84], with 89.3 nM; and `CNCCN(C)Cc1nn(C)nc1C1CCC2(CC1)CC(C)(C)CO2` (centres unmarked) [compound 86], with 444 nM.
In the case of `CNCCN(C)Cc1nn[nH]c1[C@H]1CC[C@]2(CC1)CC(C)(C)CO2` [compound 89], the IC50 turned out to be 428 nM.
For `CNCCN(C)Cc1nncn1[C@H]1CC[C@]2(CC1)CC(C)(C)CO2` [compound 90], the IC50 was greater than 10000 nM.
Then `CNCCN(C)Cc1nccn1[C@H]1CC[C@]2(CC1)CC(C)(C)CO2` [compound 91], with greater than 10000 nM; and `CNCCN(C)Cc1nnc(C)n1[C@H]1CC[C@]2(CC1)CC(C)(C)CO2` [compound 93], with greater than 10000 nM.
Then `CNCCN(C)Cc1c(Cl)ncn1[C@H]1CC[C@]2(CC1)CC(C)(C)CO2` [compound 97], with 3510 nM; and `CNCCN(C)Cc1cncn1[C@H]1CC[C@]2(CC1)CC(C)(C)CO2` [compound 98], with 2790 nM.
For `CNCCN(C)Cc1nc(C)sc1[C@H]1CC[C@]2(CC1)CC(C)(C)CO2` [compound 99] the value was 317 nM; for `CNCCN(C)Cc1sc(C)nc1[C@H]1CC[C@]2(CC1)CC(C)(C)CO2` [compound 100], 389 nM.
`CN(CCN)Cc1nn(C)cc1[C@H]1CC[C@]2(CC1)CC(C)(C)CO2` [compound 102] displayed an IC50 of 1140 nM. This IC50 lies about 2.9-fold higher than the previous one.
Then `CNCCN(C)Cc1nn(C)cc1[C@H]1CC[C@]2(CC1)CC(C)(C)CO2` [compound 103], with 405 nM; and `CN(CCN)Cc1c[nH]nc1[C@H]1CC[C@@]2(CC1)CC(C)(C)CO2` [compound 105], with 18.5 nM.
For `CN(CCN)Cc1c[nH]nc1[C@H]1CC[C@]2(CC1)CC(C)(C)CO2` [compound 106] the value was 12.8 nM; for `CNCCN(C)Cc1c(C)noc1[C@H]1CC[C@@]2(CC1)CC(C)(C)CO2` [compound 113], 1150 nM; for `CNCCN(C)Cc1c(C)noc1[C@H]1CC[C@]2(CC1)CC(C)(C)CO2` [compound 114], 2080 nM.
For `CNCCN(C)Cc1n[nH]cc1[C@H]1CC[C@@]2(CC1)CC(C)(C)CO2` [compound 115] the value was 41.6 nM; for `CNCCN(C)Cc1n[nH]cc1[C@H]1CC[C@]2(CC1)CC(C)(C)CO2` [compound 116], 134 nM.
With `CNCCN(C)Cc1nocc1[C@H]1CC[C@@]2(CC1)CC(C)(C)CO2` [compound 117], the midpoint of inhibition, the IC50, lay at 1310 nM.
Then `CNCCN(C)Cc1nocc1[C@H]1CC[C@]2(CC1)CC(C)(C)CO2` [compound 118], with 3530 nM; and `CCOCC1(COCC)CCC(c2n[nH]cc2CN(C)CCN(C)C)CC1` [compound 121], with 79.3 nM.
For `CCOCC1(COCC)CCC(c2nn(C)cc2CN(C)CCNC)CC1` [compound 122] the value was 42.7 nM.
